These are literature values, as cited in US8071602B2, “Piperidine and piperazine derivatives” (M's Science Corporation, priority 2005, dated 2011).

This data set has as its system rats. The conditions noted are these: microinjection.

The structures appear in SMILES notation.

With `Cc1ccccc1NC(=N)Nc1ccccc1C` [DTG, 1,3-di-2-tolyl-guanidine], the neck dystonia entry is “induced neck dystonia”. Consider `COc1ccc(CCN2CCN(CCCc3ccccc3)CC2)cc1OC` [SA-4503, 1-[2-(3,4-dimethoxyphenyl)ethyl]-4-(3-phenylpropyl)piperazine], for which the neck dystonia result was “no effect”.
